Measurements from patent publication US20120142667A1, “PYRIMIDINE DERIVATIVES AS ZAP-70 INHIBITORS” (priority 2009, published 2012).
Structures can show the parent of a compound that is named as a salt.

What was measured:
ZAP-70 = target: T1, ZAP-70 (Homo sapiens, UniProt P43403); assay: ZAP-70 kinobeads assay; type: binding; conditions: cell lysate
T1 construct: endogenous in cells; host or cells: cell lysate
T1 sequence (P43403 1-619): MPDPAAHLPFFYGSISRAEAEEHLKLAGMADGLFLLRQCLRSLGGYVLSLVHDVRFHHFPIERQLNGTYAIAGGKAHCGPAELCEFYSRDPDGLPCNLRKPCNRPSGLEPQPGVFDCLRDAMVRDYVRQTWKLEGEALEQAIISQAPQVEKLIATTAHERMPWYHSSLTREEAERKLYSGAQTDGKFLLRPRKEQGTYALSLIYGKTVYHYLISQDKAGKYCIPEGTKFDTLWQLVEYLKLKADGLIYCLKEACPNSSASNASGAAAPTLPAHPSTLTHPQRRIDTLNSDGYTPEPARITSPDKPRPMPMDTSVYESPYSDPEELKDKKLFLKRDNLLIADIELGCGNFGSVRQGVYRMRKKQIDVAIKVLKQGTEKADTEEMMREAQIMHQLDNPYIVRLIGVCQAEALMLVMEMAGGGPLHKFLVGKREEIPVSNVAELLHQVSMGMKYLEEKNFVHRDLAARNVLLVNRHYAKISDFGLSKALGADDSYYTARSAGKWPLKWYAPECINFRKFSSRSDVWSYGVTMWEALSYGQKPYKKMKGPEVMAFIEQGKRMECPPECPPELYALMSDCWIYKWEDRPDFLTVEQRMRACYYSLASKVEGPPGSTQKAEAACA
Outline: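 Competition binding: compounds at various concentrations incubated with cell lysate plus affinity matrix bearing immobilized aminopyrido-pyrimidine ligand 24. ZAP-70 retained on beads eluted and quantified by specific-antibody dot blot with infrared detection.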

[1] = tested on: Calcium Ion Release in Cells; assay: calcium release assay (measurement of calcium ion release in cells); type: cell-based; conditions: calcium release assay as described in WO-A 2009/080638

Structure (SMILES) | IC50 (ZAP-70) | IC50 [1]
COc1ccc(Nc2nc(Nc3cc(OC)c(CC(N)=O)cc3OC)ncc2Cl)c(NS(C)(=O)=O)c1 [Example 107, 2-(4-((5-chloro-4-((4-methoxy-2-(methylsulfonamido)phenyl)amino)pyrimidin-2-yl)amino)-2,5-dimethoxyphenyl)acetamide] | 100 to 1000 nM | ≤ 1000 nM
COc1ccc(Nc2nc(Nc3cccc(OCCF)c3C)ncc2Cl)c(NS(C)(=O)=O)c1 [Example 92, N-(2-(5-chloro-2-(3-(2-fluoroethoxy)-2-methylphenylamino)pyrimidin-4-ylamino)-5-methoxyphenyl)methanesulfonamide] | 100 to 1000 nM | ≤ 1000 nM
COc1ccc(Nc2nc(Nc3ccncc3C)ncc2Cl)c(NS(C)(=O)=O)c1 [Example 70, N-(2-(5-chloro-2-(3-methylpyridin-4-ylamino)pyrimidin-4-ylamino)-5-methoxyphenyl)methanesulfonamide] | ≤ 100 nM | ≤ 1000 nM
COc1ccc(Nc2nc(Nc3cccc(OCC(=O)N4CCC4)c3C)ncc2Cl)c(NS(C)(=O)=O)c1 [Example 5, N-(2 (2 (3 (2 (azetidin-1-yl)-2-oxoethoxy)-2-methylphenylamino)-5-chloropyrimidin-4-ylamino)-5-methoxyphenyl)methanesulfonamide] | ≤ 100 nM | ≤ 1000 nM
COc1ccc(OC)c(Nc2ncc(Cl)c(Nc3ccccc3NS(C)(=O)=O)n2)c1 [Example 16, N-(2-(5-chloro-2-(2,5-dimethoxyphenylamino)pyrimidin-4-ylamino)phenyl)methanesulfonamide hydrochloride] | 100 to 1000 nM | ≤ 1000 nM
COc1ccc(Nc2nc(Nc3ccc(OCCO)cc3F)ncc2Cl)c(NS(C)(=O)=O)c1 [Example 55, N-(2-(5-chloro-2-(2-fluoro-4-(2-hydroxyethoxy)phenylamino)pyrimidin-4-ylamino)-5-methoxyphenyl)methanesulfonamide] | 100 to 1000 nM | ≤ 1000 nM
COc1ccc(Nc2nc(Nc3cc(OCCO)ccc3C)ncc2Cl)c(NS(C)(=O)=O)c1 [Example 88, N-(2-(5-chloro-2-(5-(2-hydroxyethoxy)-2-methylphenylamino)pyrimidin-4-ylamino)-5-methoxyphenyl)methanesulfonamide] | ≤ 100 nM | ≤ 1000 nM
COc1ccc(Nc2nc(Nc3cccc(OCC(C)(C)O)c3C)ncc2Cl)c(NS(C)(=O)=O)c1 [Example 95, N-(2-((5-chloro-2-((3-(2-hydroxy-2-methylpropoxy)-2-methylphenyl)amino)pyrimidin-4-yl)amino)-5-methoxyphenyl)methanesulfonamide] | ≤ 100 nM | ≤ 1000 nM
COc1ccc(Nc2nc(Nc3cc(CCCO)ccc3OC)ncc2Cl)c(NS(C)(=O)=O)c1 [Example 112, N-(2-(5-chloro-2-(5-(3-hydroxypropyl)-2-methoxyphenylamino)pyrimidin-4-ylamino)-5-methoxyphenyl)methanesulfonamide] | 100 to 1000 nM | ≤ 1000 nM
COc1ccc(Nc2nc(Nc3ccc(C)nc3C)ncc2Cl)c(NS(C)(=O)=O)c1 [Example 75, N-(2-(5-chloro-2-(2,6-dimethylpyridin-3-ylamino)pyrimidin-4-ylamino)-5-methoxyphenyl)methanesulfonamide] | ≤ 100 nM | ≤ 1000 nM
COc1ccc(Nc2nc(Nc3cc(OC)c(CCO)cc3OC)ncc2Cl)c(NS(C)(=O)=O)c1 [Example 105, N-(2-((5-chloro-2-((4-(2-hydroxyethyl)-2,5-dimethoxyphenyl)amino)pyrimidin-4-yl)amino)-5-methoxyphenyl)methanesulfonamide] | 100 to 1000 nM | ≤ 1000 nM
COc1ccc(Nc2nc(Nc3ccc(OCCN)cc3F)ncc2Cl)c(NS(C)(=O)=O)c1 [Example 69, N-(2-(2-(4-(2-aminoethoxy)-2-fluorophenylamino)-5-chloropyrimidin-4-ylamino)-5-methoxyphenyl)methanesulfonamide] | ≤ 100 nM | ≤ 1000 nM
COc1ccc(Nc2nc(Nc3cccnc3OC)ncc2Cl)c(NS(C)(=O)=O)c1 [Example 79, N-(2-(5-chloro-2-(2-methoxypyridin-3-ylamino)pyrimidin-4-ylamino)-5-methoxyphenyl)methanesulfonamide] | 100 to 1000 nM | ≤ 1000 nM
COc1ccc(Nc2nc(Nc3cccnc3C)ncc2Cl)c(NS(C)(=O)=O)c1 [Example 77, N-(2-(5-chloro-2-(2-methylpyridin-3-ylamino)pyrimidin-4-ylamino)-5-methoxyphenyl)methanesulfonamide] | 100 to 1000 nM | ≤ 1000 nM
COc1ccc(Nc2nc(Nc3ccc(OCCCN4CCCCC4)cc3OC)ncc2Cl)c(NS(C)(=O)=O)c1 [Example 30, N-(2-(5-chloro-2-(2-methoxy-4-(3-(piperidin-1-yl)propoxy)phenylamino)pyrimidin-4-ylamino)-5-methoxyphenyl)methanesulfonamide] | ≤ 100 nM | ≤ 1000 nM
COc1ccc(Nc2nc(Nc3cc(OC)c(OCCO)cc3OC)ncc2Cl)c(NS(C)(=O)=O)c1 [Example 110, N-(2-((5-chloro-2-((4-(2-hydroxyethoxy)-2,5-dimethoxyphenyl)amino)pyrimidin-4-yl)amino)-5-methoxyphenyl)methanesulfonamide] | ≤ 100 nM | ≤ 1000 nM
COc1ccc(Nc2nc(Nc3cnc(C)cc3C)ncc2Cl)c(NS(C)(=O)=O)c1 [Example 71, N-(2-(5-chloro-2-(4,6-dimethylpyridin-3-ylamino)pyrimidin-4-ylamino)-5-methoxyphenyl)methanesulfonamide] | ≤ 100 nM | ≤ 1000 nM
COc1ccc(Nc2nc(Nc3cnc(OCCO)cc3OC)ncc2Cl)c(NS(C)(=O)=O)c1 [Example 83, N-(2-(5-chloro-2-(6-(2-hydroxyethoxy)-4-methoxypyridin-3-ylamino)pyrimidin-4-ylamino)-5-methoxyphenyl)methanesulfonamide] | ≤ 100 nM | ≤ 1000 nM
COc1ccc(Nc2nc(Nc3cc(OCCN)ccc3OC)ncc2Cl)c(NS(C)(=O)=O)c1 [Example 67, N-(2-(2-(5-(2-aminoethoxy)-2-methoxyphenylamino)-5-chloropyrimidin-4-ylamino)-5-methoxyphenyl)methanesulfonamide hydrochloride] | 100 to 1000 nM | ≤ 1000 nM
COc1ccc(Nc2nc(Nc3cc(OCCO)ccc3F)ncc2Cl)c(NS(C)(=O)=O)c1 [Example 64, N-(2-(5-chloro-2-(2-fluoro-5-(2-hydroxyethoxy)phenylamino)pyrimidin-4-ylamino)-5-methoxyphenyl)methanesulfonamide] | 100 to 1000 nM | ≤ 1000 nM
COc1ccc(Nc2nc(Nc3cc(OCCO)ccc3OC)ncc2Cl)c(NS(C)(=O)=O)c1 [Example 68, N-(2-(5-chloro-2-(5-(2-hydroxyethoxy)-2-methoxyphenylamino)pyrimidin-4-ylamino)-5-methoxyphenyl)methanesulfonamide] | ≤ 100 nM | ≤ 1000 nM
COc1ccc(C)c(Nc2ncc(Cl)c(Nc3ccc(OC)cc3NS(C)(=O)=O)n2)c1 [Example 57, N-(2-(5-chloro-2-(5-methoxy-2-methylphenylamino)pyrimidin-4-ylamino)-5-methoxyphenyl)methanesulfonamide hydrochloride] | 100 to 1000 nM | ≤ 1000 nM
